In patent US12692302B2, “Uses of IL-13 antagonists for treating atopic dermatitis” (Genentech, Inc., priority 2016, dated 2026):

Tested on: adult patients with persistent moderate to severe AD inadequately controlled by TCS
Experiment: Clinical Study II (phase II, open label, lebrikizumab monotherapy vs TCS alone): efficacy
Format: in vivo, human
Settings: for % change in BSA / % change in EASI / % change in SCORAD / EASI-75 (percent of patients) / EASI-90 (percent of patients) / IGA 0/1 (percent of patients): lebrikizumab 125 mg SC Q4W monotherapy (n = 28) or TCS cream alone BID (n = 27); for % change in pruritus VAS: patients with baseline pruritus VAS ≥3, lebrikizumab 125 mg SC Q4W monotherapy or TCS cream alone BID
Excerpt: Clinical Study II was a Phase II, randomized, open label study to evaluate the safety and efficacy of lebrikizumab monotherapy in adult patients (18-75 years of age) with persistent moderate to severe AD, who were inadequately controlled by TCS.
The inclusion criteria included the following: age 18 to 75 years; AD diagnosed by the Hanifin/Rajka criteria and that had been present for at least 1 year at screening; moderate to severe AD as graded by the Rajka/Langeland criteria at screening; history of inadequate response to a 1 month (within the 3 months prior to the screening visit) treatment regimen of at least daily TCS and regular emollient for treatment of AD; EASI score 14 at screening and end of the run-in period (Visit 3), IGA score 3 (5-point scale) at screening and end of the run-in period (Visit 3); AD involvement of 10% body surface area (BSA) at screening; and Pruritus VAS score (measured as part of the SCORAD) of 3 at screening; adherence to the protocol-specified 2-week run-in period TCS regimen (at least 10 out of 14 days) at the time of entry into the treatment period (Day 1).
Run-in Period. Following screening, eligible patients entered a 2-week run-in period (Days −14 to −1). After the run-in period, patients stopped use of their pre-study TCS (and other AD medications) and began a protocol-specified topical therapy regimen as outlined below. On the first day of the run-in period (Day −14) patients received TCS for use throughout the run-in period. Specifically, patients received triamcinolone acetonide 0.1% cream for use on the body and hydrocortisone 2.5% cream for use on the face and intertriginous areas. Patients were instructed to apply emollient to all xerotic skin surfaces at least once daily and to apply cream to active skin lesions twice per day and not to apply cream to unaffected areas.
Treatment Period (Weeks 1-12). […] A total of approximately 50 patients were randomized (1:1) to one of the following two treatment groups (see FIG. 10): Group 1: 125 mg of lebrikizumab administered by subcutaneous (SC) injection every 4 weeks (Q4W) for a total of 3 doses; and Group 2: TCS cream alone.
Efficacy Outcome Measures. The exploratory efficacy outcome measures of lebrikizumab monotherapy compared to TCS alone for this study were as follows, in order: (i) percent of patients with a 50% or 75% (EAST 50/75) reduction from baseline EASI at Week 12 (EASI-50 and EASI-75 were defined as a 50% and 75% reduction, respectively, in EASI score at Week 12 compared to baseline); (ii) percent and absolute change from baseline in EASI score at Week 12; (iii) percent of patients achieving an IGA score of 0 or 1 at Week 12; (iv) percent of patients with a ≥2 point reduction from baseline in IGA at Week 12; (v) absolute change from baseline in IGA at Week 12; (vi) percent of patients achieving an IGSA score of 0 or 1 at Week 12; (vii) percent of patients with a ≥2 point reduction from baseline in IGSA at Week 12; (viii) absolute change from baseline in IGSA at Week 12; (ix) percent and absolute change from baseline in SCORAD at Week 12; (x) percent of patients with a 50% or 75% reduction (SCORAD 50/75) from baseline in SCORAD score at Week 12; (xi) percent change from baseline in total percent body surface area (BSA) affected at Week 12; (xii) absolute- and percent-change from baseline in pruritus as measured by the Pruritus VAS (assessed as part of the SCORAD) at Week 12; (xiii) number of disease flares from baseline to Week 12; and (xiv) percent of patients who receive non-protocol specified TCS before Week 12.

Question: Which “% change in BSA” value (Baseline to Week 12) does the source give for “lebrikizumab: monoclonal humanized anti-IL-13 IgG4 antibody; heavy chain SEQ ID NO: 11, light chain SEQ ID NO: 12; formulated at 125 mg/mL in prefilled syringe” here?
Answer: −43.2%

Question: What about the “% change in EASI” value (Baseline to Week 12) of the same substance?
Answer: −44.0%

Question: What about the “% change in SCORAD” value (Baseline to Week 12) of the same substance?
Answer: −26.6%

Question: And the “EASI-75 (percent of patients)” value (Baseline to Week 12)?
Answer: 39.3%

Question: What about the “EASI-90 (percent of patients)” value (Baseline to Week 12) of the same substance?
Answer: 14.3%

Question: And the “IGA 0/1 (percent of patients)” value (Baseline to Week 12)?
Answer: 7.1%

Question: And the “% change in pruritus VAS” value (Baseline to Week 12)?
Answer: −14.5%

Question: And the “% change in BSA” value (Day −14 to Week 12)?
Answer: −52.2%

Question: And the “% change in EASI” value (Day −14 to Week 12)?
Answer: −53.8%

Question: What about the “% change in SCORAD” value (Day −14 to Week 12) of the same substance?
Answer: −40.5%

Question: And the “EASI-75 (percent of patients)” value (Day −14 to Week 12)?
Answer: 42.9%

Question: What about the “EASI-90 (percent of patients)” value (Day −14 to Week 12) of the same substance?
Answer: 14.3%

Question: What about the “IGA 0/1 (percent of patients)” value (Day −14 to Week 12) of the same substance?
Answer: 7.1%

Question: And the “% change in pruritus VAS” value (Day −14 to Week 12)?
Answer: −39.6%
